# Measured values published in patent US9260504B2, “N- and C-terminal substituted antagonistic analogs of GH-RH” (University of Miami, priority 2008, dated 2016).
# Tests used:
# Type in all cases: in vivo
# [1] = test system: H-460 human non-small cell lung cancer; test: H-460 human non-SCLC xenografts in nude mice, Experiment 2; settings: 5 μg/day s.c.; for Tumor growth after 4 weeks (%): 28 days, means±S.E.; for Inhibition (%): after 4 weeks
# Method: Male nude mice were implanted s.c. with 3 mm^3 pieces of H-460 human non-SCLC tumor tissue on both flanks. When tumors had grown to a mean volume of approximately 90 mm^3, the mice were randomly assigned into 12 experimental groups with 8 to 10 animals in each group and received single daily injections for 28 days as follows: 1. Control (vehicle solution); 2. JMR-132 (10 μg/day s.c.); 3. Peptide 11109 (5 μg/day s.c.); 4. Peptide 11113 (5 μg/day s.c.); 5. Peptide 11119 (5 μg/day s.c.); 6. Peptide 11209 (5 μg/day s.c.); 7. Peptide 11313 (5 μg/day s.c.); 8. Peptide 11408 (5 μg/day s.c.); 9. Peptide 11435 (5 μg/day s.c.); 10. Peptide 11459 (5 μg/day s.c.); 11. Peptide 11469 (5 μg/day s.c.); 12. Peptide 11491 (5 μg/day s.c.). Tumor volumes were measured once a week. The experiment was ended on day 28 by sacrificing the mice under Isoflurane anesthesia. Resulting tumors were cleaned, weighed, and snap-frozen until further analyses. Statistical analyses of the measurement results were done by two-tailed t-test, p<0.05 being considered significant. Data are presented as the means±S.E.
# [2] = test system: PC-3 human hormone-independent prostate cancer; test: PC-3 human prostate cancer xenografts in nude mice, Experiment 3; settings: 2 μg/day s.c., 28 days
# Method: (§1) Male nude mice were implanted s.c. with 3 mm^3 pieces of PC-3 human hormone-independent prostate cancer tissue on both flanks. When tumors reached a volume of approximately 50 mm^3, the mice were divided into 12 experimental groups with 8 to 10 animals in each group and received single daily injections for 28 days as follows: 1. Control (vehicle solution); 2. JMR-132 (10 μg/day s.c.); 3. Peptide 11113 (2 μg/day s.c.); 4. Peptide 11119 (2 μg/day s.c.); 5. Peptide 11209 (2 μg/day s.c.); 6. Peptide 11313 (2 μg/day s.c.); 7. Peptide 11408 (2 μg/day s.c.); 8. Peptide 11435 (2 μg/day s.c.); 9. Peptide 11457 (2 μg/day s.c.); 10. Peptide 11459 (2 μg/day s.c.); 11. Peptide 11469 (2 μg/day s.c.); 12. Peptide 11491 (2 μg/day s.c.).
# (§2) Tumor volumes were measured once a week. The experiment was ended on day 28 by sacrificing the mice under Isoflurane anesthesia. Resulting tumors were cleaned, weighed, and snap-frozen until further analyses. Statistical analyses of the measurement results were done by two-tailed t-test, p<0.05 being considered significant.
# [3] = test system: H-460 human non-small cell lung cancer; test: H-460 human non-SCLC xenografts in nude mice, Experiment 3; settings: 28 days; for Tumor growth inhibition after 4 weeks (%): 5 μg/day s.c.; for Inhibition of H-460 lung tumor growth compared with reference peptide JMR-132: 5 μg/day vs JMR-132 10 μg/day
# Method: Male nude mice were implanted s.c. with 3 mm^3 pieces of H-460 human non-SCLC tumor tissue on both flanks. When tumors had grown to a mean volume of approximately 90 mm^3, the mice were randomly assigned into 8 experimental groups with 8 to 10 animals in each group and received single daily injections for 28 days as follows: 1. Control (vehicle solution); 2. JMR-132 (10 μg/day s.c.); 3. Peptide 11123 (5 μg/day s.c.); 4. Peptide 11125 (5 μg/day s.c.); 5. Peptide 11307 (5 μg/day s.c.); 6. Peptide 11317 (5 μg/day s.c.); 7. Peptide 11473 (5 μg/day s.c.); 8. Peptide 11485 (5 μg/day s.c.). Tumor volumes were measured once a week. The experiment was ended on day 28 by sacrificing the mice under Isoflurane anesthesia. Resulting tumors were cleaned, weighed, and snap-frozen until further analyses. Statistical analyses of the measurement results were done by two-tailed t-test, p<0.05 being considered significant.
# [4] = test system: PC-3 human hormone-independent prostate cancer; test: PC-3 human prostate cancer xenografts in nude mice, Experiment 4; settings: for Tumor growth after 28 days (%) / Tumor growth after 46 days (%) / Inhibition (%): 2 μg/day s.c.; for Inhibitory effect on PC-3 tumors compared with reference peptide JMR-132: 2 μg/day vs JMR-132 10 μg/day, after 46 days of treatment
# Method: as §1, §2
# All experimental details of Experiment 4 are the same as for Experiment 3, with the following difference. When tumors reached a volume of approximately 50 mm^3, the mice were divided into 11 experimental groups with 8 to 10 animals in each group and received single daily injections for 46 days as follows: 1. Control (vehicle solution); 2. JMR-132 (10 μg/day s.c.); 3. Peptide 11123 (2 μg/day s.c.); 4. Peptide 11125 (2 μg/day s.c.); 5. Peptide 11213 (2 μg/day s.c.); 6. Peptide 11433 (2 μg/day s.c.); 7. Peptide 11473 (2 μg/day s.c.); 8. Peptide 11485 (2 μg/day s.c.); 9. Peptide 11497 (2 μg/day s.c.); 10. Peptide 11499 (2 μg/day s.c.); 11. Peptide 11521 (2 μg/day s.c.). Tumor volumes were measured once a week. The experiment was ended on day 46 by sacrificing the mice under Isoflurane anesthesia. Resulting tumors were cleaned, weighed, and snap-frozen until further analyses. Statistical analyses of the measurement results were done by two-tailed t-test, p<0.05 being considered significant.
Substance,Tumor growth after 4 weeks (%) [1],Inhibition (%) [1],Tumor growth inhibition after 4 weeks (%) [2],Tumor growth inhibition after 4 weeks (%) [3],Inhibition of H-460 lung tumor growth compared with reference peptide JMR-132 [3],Tumor growth after 28 days (%) [4],Tumor growth after 46 days (%) [4],Inhibitory effect on PC-3 tumors compared with reference peptide JMR-132 [4],Inhibition (%) ([4]; after 28 days),Inhibition (%) ([4]; after 46 days)
"[(Ac-Ada)^0-Tyr^1, D-Arg^2, Cpa^6, Ala^8, Har^9, Tyr(Me)^10, His^11, Orn^12, Abu^15, His^20, Orn^21, Nle^27, D-Arg^28, Har^29-Ada^30]hGH-RH(1-29)NH2 [Peptide 11469]",4810 ± 1977%,39.06%,78.07%,–,–,–,–,–,–,–
"[(Ac-Ada)^0-Tyr^1, D-Arg^2, Cpa^6, Ala^8, Har^9, Tyr(Me)^10, His^11, Orn^12, Abu^15, His^20, Orn^21, Nle^27, D-Arg^28, Har^29]hGH-RH(1-29)NH2 [Peptide 11435]",4170 ± 2064%,47.17%,75.11%,–,–,–,–,–,–,–
"[(Ac-Ada-D-Phe)^0-Tyr^1, D-Arg^2, Cpa^6, Ala^8, Har^9, Tyr(Me)^10, His^11, Abu^15, His^20, Nle^27, D-Arg^28, Har^29]hGH-RH(1-29)NH2 [Peptide 11119]",5254 ± 1524%,33.44%,32.03%,–,–,–,–,–,–,–
"[(Ac-Amc)-Tyr^1, D-Arg^2, Cpa^6, Ala^8, Har^9, Tyr(Me)^10, His^11, Orn^12, Abu^15, His^20, Nle^27, D-Arg^28, Har^29-Amc^30]hGH-RH(1-29)NH2 [Peptide 11307]",–,–,–,30.98%,more potently inhibited the growth of H-460 lung tumors than the reference peptide JMR-132,–,–,–,–,–
"[(Ac-Amc)^0-Tyr^1, D-Arg^2, Cpa^6, (Me-Ala)^8, Har^9, Tyr(Me)^10, His^11, Abu^15, His^20, Nle^27, D-Arg^28, Har^29]hGH-RH(1-29)NH2 [Peptide 11408]",3998 ± 1113%,49.35%,63.61%,–,–,–,–,–,–,–
"[(CH3—(CH2)10CO-Ada)^0-Tyr^1, D-Arg^2, Cpa^6, Ala^8, Har^9, Tyr(Me)^10, His^11, Orn^12, Abu^15, His^20, Orn^21, Nle^27, D-Arg^28, Har^29-Ada^30]hGH-RH(1-29)NH2 [Peptide 11485]",–,–,–,9.04%,–,794%,1257%,had a more potent inhibitory effect than reference peptide JMR-132,41.96%,62.24%
"[(CH3—(CH2)10—CO-Ada)^0-Tyr^1, D-Arg^2, Cpa^6, Ala^8, Har^9, Tyr(Me)^10, His^11, Abu^15, His^20, Nle^27, D-Arg^28, Har^29]hGH-RH(1-29)NH2 [Peptide 11125]",–,–,–,33.03%,more potently inhibited the growth of H-460 lung tumors than the reference peptide JMR-132,424%,1009%,had a more potent inhibitory effect than reference peptide JMR-132,68.97%,69.69%
"[(Dca-Ada)^0-Tyr^1, D-Arg^2, (Phe(F)5)^6, Ala^8, Har^9, Tyr(Me)^10, His^11, Orn^12, Abu^15, His^20, Orn^21, Nle^27, D-Arg^28, Har^29]hGH-RH(1-29)NH2 [Peptide 11491]",1926 ± 473%,75.60%,72.43%,–,–,–,–,–,–,–
"[(Dca-Ada)^0-Tyr^1, D-Arg^2, Cpa^6, Ala^8, Har^9, Tyr(Me)^10, His^11, Abu^15, His^20, Nle^27, D-Arg^28, Har^29]hGH-RH(1-29)NH2 [Peptide 11123]",–,–,–,35.74%,more potently inhibited the growth of H-460 lung tumors than the reference peptide JMR-132,786%,1849%,–,42.57%,44.48%
"[(PhAc^0-Ada)-Tyr^1, D-Arg^2, Cpa^6, Ala^8, Har^9, Tyr(Me)^10, His^11, Orn^12, Abu^15, His^20, Orn^21, Nle^8, D-Arg^28, Har^29-Ada^30]hGH-RH(1-29)NH2 [Peptide 11473]",–,–,–,54.64%,more potently inhibited the growth of H-460 lung tumors than the reference peptide JMR-132,442%,1072%,had a more potent inhibitory effect than reference peptide JMR-132,67.68%,67.80%
"[(PhAc^0-Ada)-Tyr^1, D-Arg^2, Cpa^6, Ala^8, Har^9, Tyr(Me)^10, His^11, Orn^12, Abu^15, His^20, Orn^21, Nle^27, D-Arg^28, Har^29]hGH-RH(1-29)NH2 [Peptide 11459]",2418 ± 923%,69.36%,53.60%,–,–,–,–,–,–,–
"[Fer^0-Tyr^1, D-Arg^2, Cpa^6, Ala^8, Har^9, Tyr(Me)^10, His^11, Abu^15, His^20, Nle^27, D-Arg^28, Har^29]hGH-RH(1-29)NH2 [Peptide 11113]",6790 ± 3340%,13.98%,29.37%,–,–,–,–,–,–,–
"[PhAc^0-Tyr^1, D-Arg^2, Cpa^6, Ala^8, Har^9, Tyr(Me)^10, His^11, Abu^15, His^20, Nle^27, D-Arg^28, Har^29-Apa^30]hGH-RH(1-29)NH2 [Peptide 11209]",6377 ± 2477%,19.21%,48.04%,–,–,–,–,–,–,–
